Where “and” joins values, the source holds several entries; their conditions need not be identical. Equal entries are not always repeated.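 These data come from cells grown in 96-well plates and exposed to compound for 48 hours at five concentrations. GI50 marks 50% less growth. TGI: total growth inhibition.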
Tests used:
Assay in all cases: NCI tumour cell line growth inhibition, 48 h
A498 renal = test system: A498 renal
NCI-H23 lung = test system: NCI-H23 lung
HCT-15 colon = test system: HCT-15 colon
HT29 colon = test system: HT29 colon
OVCAR-5 ovarian = test system: OVCAR-5 ovarian
HCC-2998 colon = test system: HCC-2998 colon
HCT-116 colon = test system: HCT-116 colon
SN12C renal = test system: SN12C renal
DLD-1 colon = test system: DLD-1 colon
SNB-78 CNS = test system: SNB-78 CNS

Structure (SMILES) | TGI (A498 renal) | TGI (NCI-H23 lung) [µM] | TGI (HCT-15 colon) [µM] | TGI (HT29 colon) [µM] | TGI (OVCAR-5 ovarian) [µM] | TGI (HCC-2998 colon) [µM] | TGI (HCT-116 colon) [µM] | TGI (SN12C renal) [µM] | TGI (DLD-1 colon) [µM] | TGI (SNB-78 CNS) [µM] | GI50 (A498 renal) [µM] | GI50 (DLD-1 colon) [µM]
Clc1[nH]nc2ccccc12 | > 100 µM | > 100 | > 100 | > 100 | > 100 | > 100 | > 100 | > 100 |  |  |  | 
Cc1nnc(SCc2nc(C#N)c(C#N)nc2CSc2nnc(C)s2)s1 | > 66.5 µM | 45 | 26.4 | 37.2 | 34.5 | 30.4 | 11.5 | 38.2 |  |  |  | 
COCOC1CCCC[C@@]1(OCCOCCO[C@@]1(c2ccccc2)CCCC[C@H]1OCOC)c1ccccc1 (stereo partly drawn) |  | > 100 |  | > 100 | > 100 | > 100 | > 100 | > 100 | > 100 | > 100 |  | 
COc1ccccc1N=Nc1c(O)ccc2ccccc12 | 62.3 µM and 89.2 µM | > 100 | > 100 | > 100 | > 100 | 71 | > 100 | > 100 |  |  |  | 
Cc1ccc(C(=O)Nc2ccc(CP(=O)(O)O)cc2CP(=O)(O)O)cc1N | > 100 µM | > 100 | > 100 | > 100 | > 100 | > 100 | > 100 | > 100 |  |  |  | 
CC(C)C(NCc1c2ccccc2[n+](C)c2ccccc12)C(=O)O (stereo not drawn) | 24.6 µM | 27.2 | 13.9 | 10.3 | 33.2 | 29.3 | 13.6 | 18 | 13.8 | 24.8 |  | 
Nc1c(C(=O)O)c2ccc([N+](=O)[O-])cc2c(=O)n1-c1nc2ccccc2s1 | > 100 µM | > 100 | > 100 | > 100 | > 100 | > 100 | > 100 | > 100 |  |  |  | 
COc1cc2c(cc1O)C(Cc1ccc(OCc3ccccc3)c(OCc3ccccc3)c1)N(C(=O)NCCc1ccccc1)CC2 (stereo not drawn) | > 100 µM | > 100 | > 100 | > 100 | > 100 | > 100 | > 100 | > 100 |  |  |  | 
O=C1Nc2noc(=O)nc2NO1 | > 200 µM | > 200 | > 200 | > 200 | > 200 | > 200 | > 200 | > 200 |  |  |  | 
CN(Cc1cnc2nc(N)nc(N)c2n1)c1ccc(C(=O)NC(CCC(=O)O)C(=O)O)c2ccccc12 (stereo not drawn) | > 1000 µM | > 1000 | > 1000 | > 1000 | > 1000 |  | > 1000 | > 1000 |  |  | 0.0152 | 0.00257

From PubChem BioAssay (NCI)
